Laboratory results taken from US20130337014A1 (priority 2008, published 2013).

Test system: Clostridium perfringens
Assay type: in vivo, broiler chickens (Cobb X Cobb)
Conditions: CP challenged

CC[C@@H](C(=O)[C@@H](C)[C@@H](O)[C@H](C)[C@@H]1O[C@@H]([C@@H](CC)C(=O)O)CC[C@@H]1C)[C@H]1O[C@]2(C=C[C@@H](O)[C@]3(CC[C@@](C)([C@H]4CC[C@](O)(CC)[C@H](C)O4)O3)O2)[C@H](C)C[C@@H]1C [S, salinomycin]
Necrotic Enteritis Lesion Score (Day 22, 0 to 3 score): 0.10 | Average Weight Gain (kg) Days 0 to 21 (Days 0 to 21): .592 kg | Feed Conversion Ratio (feed to gain ratio) Days 0 to 21 (Days 0 to 21): 1.550 | Feed Conversion Ratio (feed to gain ratio) Days 0 to 42 (Days 0 to 42): 1.914 | Mortality (%) All Causes Days 0 to 42 (Days 0 to 42): 4.67% | Mortality (%) Necrotic Enteritis Days 0 to 42 (Days 0 to 42): 1.33% | Feed Conversion Ratio (feed to gain ratio) Days 21 to 42 (Days 21 to 42): 2.126
